Molecules are shown by their SMILES. Calls of active or inactive are those of the source. The calls are words filed in the database; no cut-off is given here.

By solubility is commonly meant the dissolved amount per volume that the medium holds. Higher therefore signals a readily soluble substance. One may read the IC50 as the midpoint of a concentration-inhibition curve. For orientation: Cmax means the peak of the concentration-time curve. Usually CL/F stands for clearance divided by bioavailability, as obtained after extravascular dosing. One may read the AUC(0-inf) as total exposure, with the tail of the curve extrapolated. Read a low AUC(0-inf) as low exposure. The term MTD denotes the largest dose that counted as tolerated. As a reminder, the Ki is the dissociation constant of the complex between target and ligand, obtained from inhibition or displacement.

The test system of one series is HCT-116. Kind of series: Antitumor activity against human HCT116 cells xenografted in nude BALB/c mouse assessed as tumor growth inhibition at 100 mg/kg, po qd for 21 days measured on day 18. As to conditions: read-out: TGI. It counts as functional.
Series [1] can be described thus: Time required for attaining concentration above IC50 of HCT116 in tumor of nude BALB/c mouse xenografted with HCT116 cells at 100 mg/kg, po administered as single dose. It counts as ADME, organism-based, Neoplasm, HCT-116. Also on record: dose 100 mg/kg, route oral. Conditions: in vivo.
In series [2] the target is Matrix metalloproteinase-9 (Homo sapiens) (UniProt P14780). The series is described as follows: Inhibition of MMP9 at 10 uM.
The nature of series [3]: Half life in human liver microsomes. In kind it is ADME, Microsome. A general note: Liver microsomes are a subcellular fraction often used to study metabolism.
Series [4] can be described thus: Solubility of the compound in water at pH 2.2. In kind it is physicochemical.
A short description of series [5]: Solubility of the compound in phosphate buffer at pH 4.5. It counts as physicochemical.
Series [6] in a line: Solubility of the compound in 1% methylcellulose/0.1% Tween 80. In kind it is physicochemical.
A short description of series [7]: Half life in dog liver microsomes. In kind it is ADME, Canis lupus familiaris, Microsome.
A short description of series [8]: Kinetic solubility of the compound at pH 7 with […] DMSO. It counts as physicochemical. As to conditions: buffer, read-out: Kinetic_solubility.
Another series addresses T1, CYP1A (Homo sapiens, UniProt P04798+P05177).
T1 sequence (P04798 whole entry): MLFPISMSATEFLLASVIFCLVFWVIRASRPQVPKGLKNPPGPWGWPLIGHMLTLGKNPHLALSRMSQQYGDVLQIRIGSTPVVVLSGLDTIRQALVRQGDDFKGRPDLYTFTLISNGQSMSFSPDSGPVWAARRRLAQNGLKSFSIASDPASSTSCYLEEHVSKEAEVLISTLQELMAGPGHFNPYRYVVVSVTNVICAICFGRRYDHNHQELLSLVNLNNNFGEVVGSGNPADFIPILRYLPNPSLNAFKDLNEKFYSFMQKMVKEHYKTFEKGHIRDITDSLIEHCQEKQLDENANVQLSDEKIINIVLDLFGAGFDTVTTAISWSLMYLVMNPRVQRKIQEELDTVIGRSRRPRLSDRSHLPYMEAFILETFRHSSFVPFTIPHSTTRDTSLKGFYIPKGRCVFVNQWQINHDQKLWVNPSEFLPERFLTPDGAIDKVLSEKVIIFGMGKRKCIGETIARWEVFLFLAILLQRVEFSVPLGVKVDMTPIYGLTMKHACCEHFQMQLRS
T1 sequence (P05177 whole entry): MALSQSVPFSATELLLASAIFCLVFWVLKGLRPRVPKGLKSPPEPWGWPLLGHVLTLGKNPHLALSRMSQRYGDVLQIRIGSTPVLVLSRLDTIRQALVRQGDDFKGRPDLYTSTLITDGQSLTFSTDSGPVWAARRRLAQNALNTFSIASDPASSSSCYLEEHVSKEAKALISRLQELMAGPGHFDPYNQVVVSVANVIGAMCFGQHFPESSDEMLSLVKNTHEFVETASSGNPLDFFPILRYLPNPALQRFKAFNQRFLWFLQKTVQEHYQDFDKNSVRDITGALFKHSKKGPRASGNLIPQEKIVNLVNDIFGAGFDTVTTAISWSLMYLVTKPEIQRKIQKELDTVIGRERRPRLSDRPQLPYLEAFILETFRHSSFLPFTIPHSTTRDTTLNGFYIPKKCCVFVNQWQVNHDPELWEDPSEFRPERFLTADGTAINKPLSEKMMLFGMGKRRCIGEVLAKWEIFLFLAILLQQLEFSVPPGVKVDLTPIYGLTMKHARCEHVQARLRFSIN
The series is described as follows: Inhibition of CYP1A in human liver microsomes by fluorescence assay. In kind it is ADME, Microsome.

The nature of series [9]: Cmax in nude BALB/c mouse at 50 mg/kg, po. It counts as ADME, organism-based. Also on record: dose 50 mg/kg, route oral. As to conditions: in vivo.
A short description of series [10]: Terminal half life in nude BALB/c mouse at 50 mg/kg, po. Conditions: in vivo, read-out: beta t1/2 (converted). In kind it is ADME, organism-based. On the set-up: dose 50 mg/kg, route oral.
Series [11] can be described thus: Apparent oral clearance in nude BALB/c mouse at 50 mg/kg, po. As to conditions: in vivo. It counts as ADME, organism-based. Also on record: dose 50 mg/kg, route oral.
Series [12] can be described thus: Oral bioavailability in nude BALB/c mouse at 50 mg/kg. It counts as ADME, organism-based. Conditions: in vivo.
Series [13] is described as follows: Apparent oral clearance in Wistar rat at 2 mg/kg, iv. In kind it is ADME, organism-based. On the set-up: dose 2 mg/kg. As to conditions: in vivo.
Series [14] can be described thus: Terminal half life in Wistar rat at 10 mg/kg, po. It counts as ADME, organism-based. Also on record: dose 10 mg/kg, route oral. Conditions: in vivo, read-out: beta t1/2 (converted).
The test system of series [15] is Mus musculus. Kind of series: Toxicity in nude BALB/c mouse xenografted with human HCT116 cells assessed as body weight loss at 50 mg/kg, po QD for 21 days measured on day 17. Also on record: dose 50 mg/kg, route oral. Conditions: in vivo, 504 h. It counts as organism-based, HCT-116.
The subject of series [16] is Mus musculus. Kind of series: Toxicity in nude BALB/c mouse xenografted with human HCT116 cells assessed as body weight loss at 200 mg/kg, po QD for 21 days measured on day 6. As to conditions: in vivo, 504 h. On the set-up: dose 200 mg/kg, route oral. It counts as organism-based, HCT-116.
Series [17] can be described thus: Oral bioavailability in Wistar rat at 10 mg/kg. It counts as ADME, organism-based. Conditions: in vivo.
Series [18] is described as follows: Terminal half life in Beagle dog at 2 mg/kg, iv. In kind it is ADME, organism-based, Canis lupus familiaris. Also on record: dose 2 mg/kg, route intravenous. As to conditions: in vivo, read-out: beta t1/2 (converted).
Series [19] can be described thus: Cmax in Beagle dog at 10 mg/kg, po. Conditions: in vivo. On the set-up: dose 10 mg/kg, route oral. It counts as ADME, organism-based, Canis lupus familiaris.
A short description of series [20]: AUC (0 to infinity) in Beagle dog at 10 mg/kg, po. It counts as ADME, organism-based, Canis lupus familiaris. Also on record: time infinity, dose 10 mg/kg, route oral. As to conditions: plasma.
Series [21] can be described thus: Oral bioavailability in Beagle dog at 10 mg/kg. In kind it is ADME, organism-based, Canis lupus familiaris. Conditions: in vivo.
Series [22] can be described thus: Toxicity in po dosed athymic nu/nu Harlan mouse with xenografted human HCT116 cells assessed as maximum tolerated administered qd for 21 days. It counts as organism-based, HCT-116. Conditions: in vivo. Background: Xenograft models place foreign cells or tissue in a host animal.
Another series relates to PC-3. Kind of series: Antiproliferative activity against human PC3 cells. In kind it is functional, cell-based.
In series [23] the test system is Mus musculus. Kind of series: Toxicity in nude BALB/c mouse xenografted with human A2780 cells assessed as maximum body weight loss at 50 mg/kg, po QD for 21 days measured on day 13. In kind it is organism-based. Conditions: in vivo, 504 h. Also on record: dose 50 mg/kg, route oral.
Series [24] relates to Mus musculus. Kind of series: Toxicity in nude BALB/c mouse xenografted with human Ramos cells assessed as mortality at 50 mg/kg, po QD for 21 days measured on day 15. It counts as organism-based. Conditions: in vivo, 504 h. Also on record: dose 50 mg/kg, route oral.
In a further series the target is Histone deacetylase 3 (Homo sapiens, UniProt O15379).
A further series deals with T2, Histone deacetylase 8 (Homo sapiens, UniProt Q9BY41).
T2 sequence (Q9BY41 whole entry): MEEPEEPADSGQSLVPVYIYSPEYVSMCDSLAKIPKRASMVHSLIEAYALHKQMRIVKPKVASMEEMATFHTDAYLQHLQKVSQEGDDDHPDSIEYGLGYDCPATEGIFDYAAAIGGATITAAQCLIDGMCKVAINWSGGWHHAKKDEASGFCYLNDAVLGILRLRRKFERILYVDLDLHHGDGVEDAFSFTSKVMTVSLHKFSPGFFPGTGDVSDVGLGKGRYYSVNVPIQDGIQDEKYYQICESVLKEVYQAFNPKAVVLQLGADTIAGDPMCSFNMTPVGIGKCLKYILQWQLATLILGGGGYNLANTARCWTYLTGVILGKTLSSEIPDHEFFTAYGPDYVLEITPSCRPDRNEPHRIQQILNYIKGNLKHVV

Series [25] concerns the target T3, Cytochrome P450 3A4 (Homo sapiens, UniProt P08684). The series is described as follows: Inhibition of recombinant CYP3A4 after 30 mins by fluorescence assay. It counts as ADME.
The target in another series is Histone deacetylase 1 (Homo sapiens, UniProt Q13547).
Series [26] has as its target T3, Cytochrome P450 3A4. The series is described as follows: Inhibition of CYP3A4 in human liver microsomes.

T3 sequence (P08684 whole entry): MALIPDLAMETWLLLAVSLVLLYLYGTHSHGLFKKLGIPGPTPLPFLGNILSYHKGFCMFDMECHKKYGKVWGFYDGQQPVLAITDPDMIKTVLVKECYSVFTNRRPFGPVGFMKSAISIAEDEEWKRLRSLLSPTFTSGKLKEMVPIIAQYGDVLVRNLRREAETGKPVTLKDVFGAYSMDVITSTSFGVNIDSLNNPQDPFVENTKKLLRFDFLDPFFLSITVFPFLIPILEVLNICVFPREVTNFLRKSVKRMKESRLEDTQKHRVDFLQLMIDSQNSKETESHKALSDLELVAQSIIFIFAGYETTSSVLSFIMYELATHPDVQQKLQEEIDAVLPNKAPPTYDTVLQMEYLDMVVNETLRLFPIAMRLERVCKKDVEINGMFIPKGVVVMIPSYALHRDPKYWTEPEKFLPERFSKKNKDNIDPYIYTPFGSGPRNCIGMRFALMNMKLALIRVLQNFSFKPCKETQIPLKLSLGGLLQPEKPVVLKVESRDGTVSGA
Histone deacetylase 3, sequence (O15379 whole entry): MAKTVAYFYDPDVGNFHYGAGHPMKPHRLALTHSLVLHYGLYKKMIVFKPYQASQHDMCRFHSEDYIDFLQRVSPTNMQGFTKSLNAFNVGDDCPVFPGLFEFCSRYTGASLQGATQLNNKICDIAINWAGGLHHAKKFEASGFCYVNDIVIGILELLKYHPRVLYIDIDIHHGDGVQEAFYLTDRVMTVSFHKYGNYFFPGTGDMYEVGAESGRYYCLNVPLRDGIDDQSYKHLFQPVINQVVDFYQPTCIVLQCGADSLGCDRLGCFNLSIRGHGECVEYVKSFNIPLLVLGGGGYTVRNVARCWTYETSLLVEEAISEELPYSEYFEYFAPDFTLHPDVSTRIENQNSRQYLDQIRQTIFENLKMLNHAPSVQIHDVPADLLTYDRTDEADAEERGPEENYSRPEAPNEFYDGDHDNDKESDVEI
Histone deacetylase 1, sequence (Q13547 whole entry): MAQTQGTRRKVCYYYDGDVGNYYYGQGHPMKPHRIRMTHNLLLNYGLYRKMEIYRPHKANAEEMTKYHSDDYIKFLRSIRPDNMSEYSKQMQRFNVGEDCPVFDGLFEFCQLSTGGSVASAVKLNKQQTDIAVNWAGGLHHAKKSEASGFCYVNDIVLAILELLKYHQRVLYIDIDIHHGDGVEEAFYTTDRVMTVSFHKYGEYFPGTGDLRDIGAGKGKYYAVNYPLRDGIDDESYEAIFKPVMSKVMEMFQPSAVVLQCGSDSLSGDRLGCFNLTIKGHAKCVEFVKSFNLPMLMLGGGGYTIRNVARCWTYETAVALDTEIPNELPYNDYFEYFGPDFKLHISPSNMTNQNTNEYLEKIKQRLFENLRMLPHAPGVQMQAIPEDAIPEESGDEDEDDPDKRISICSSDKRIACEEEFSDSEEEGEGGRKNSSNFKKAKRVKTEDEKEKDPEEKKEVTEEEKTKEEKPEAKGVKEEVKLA
Matrix metalloproteinase-9 (Homo sapiens), sequence (P14780 whole entry): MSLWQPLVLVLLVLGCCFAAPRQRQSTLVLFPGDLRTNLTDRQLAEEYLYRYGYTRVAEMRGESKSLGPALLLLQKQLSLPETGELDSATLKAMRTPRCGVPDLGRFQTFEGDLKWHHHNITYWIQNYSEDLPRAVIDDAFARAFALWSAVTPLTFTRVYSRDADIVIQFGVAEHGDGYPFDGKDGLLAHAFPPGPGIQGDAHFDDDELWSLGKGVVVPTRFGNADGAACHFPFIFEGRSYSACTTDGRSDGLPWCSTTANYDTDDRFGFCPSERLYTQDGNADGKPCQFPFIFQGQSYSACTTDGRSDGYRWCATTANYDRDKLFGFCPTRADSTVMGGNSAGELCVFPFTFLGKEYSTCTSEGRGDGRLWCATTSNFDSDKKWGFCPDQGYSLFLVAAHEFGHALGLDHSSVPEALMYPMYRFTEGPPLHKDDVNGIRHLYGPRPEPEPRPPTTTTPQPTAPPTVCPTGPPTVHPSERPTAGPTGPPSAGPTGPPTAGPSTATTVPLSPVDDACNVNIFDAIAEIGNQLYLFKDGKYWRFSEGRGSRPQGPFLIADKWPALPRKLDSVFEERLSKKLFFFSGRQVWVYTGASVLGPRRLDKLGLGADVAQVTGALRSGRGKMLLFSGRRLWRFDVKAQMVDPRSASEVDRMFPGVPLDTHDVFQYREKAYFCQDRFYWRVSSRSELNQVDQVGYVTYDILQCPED
Description for Histone deacetylase 1: Inhibition of full length recombinant HDAC1 using Fluor de Lys as substrate by fluorescence assay
Description for Histone deacetylase 3: Competitive inhibition of HDAC3 using KI-104 as substrate by fluorescence assay
Description for Histone deacetylase 8: Competitive inhibition of HDAC8 using KI-104 as substrate by fluorescence assay

With `CCCCc1nc2cc(/C=C/C(=O)NO)ccc2n1CCN(CC)CC.Cl.Cl`, in the series with HCT-116, the inhibition in vivo at 100 mg/kg amounted to 98%. For the same molecule, the Time in [1] came to 7.1 h. For the same molecule, the inhibition result in [2] is “inactive”. In addition, the half-life in series [3] was greater than 1 h; in [7], greater than 1 h; in series [10] it was 2.44 h; in series [14], 2.02 h; in series [18] it was 3.9 h. Moreover, the values for the solubility in [4], in series [5] and in series [6] were greater than 100 mg/mL, greater than 50 mg/mL and greater than 25 mg/mL, respectively. Further, the solubility kinetic in series [8] is greater than 200 µM. The IC50 was greater than 25 µM on CYP1A and 0.34 µM with PC-3. The Cmax is 6.1 µM in series [9] and 3.56 µM in series [19]. For the same molecule, the CL/F was 27.2 L/h/kg in series [11] and 4.45 L/h/kg in [13]. The bioavailability was determined as 34% in series [12], 3.1% in series [17] and 65% in series [21]. The Activity in the series with Mus musculus [15] is recorded as 6.4%; in the series on Mus musculus [16], 25.5%; in the series with Mus musculus [23] it was 8.9%; in the series on Mus musculus [24], “Non-toxic”. Also, the AUC(0-inf) in [20] turned out to be 10.5 µM·h. Further, the MTD at 504 h in series [22] stood at 50 mg/kg.
Turning to `CCCCCCc1nc2cc(/C=C/C(=O)NO)ccc2n1CCN(C)C`, the Ki on Histone deacetylase 3 was 0.02 µM; at Histone deacetylase 8, 0.136 µM. Also, the IC50 at Cytochrome P450 3A4 [25] is 0.33 µM; at CYP1A, greater than 25 µM; on Histone deacetylase 1, 0.028 µM; against Cytochrome P450 3A4 [26], greater than 25 µM. Besides, the MTD at 504 h in [22] turned out to be 200 mg/kg.
In the case of `CN(C)CC(C)(C)Cn1c(CC(C)(C)C)nc2cc(/C=C/C(=O)NO)ccc21`, the values for the Ki at Histone deacetylase 3 and on Histone deacetylase 8 were 0.02 µM and 0.065 µM, respectively. The IC50 is 2.28 µM at Cytochrome P450 3A4 [25], greater than 25 µM against CYP1A, 0.046 µM against Histone deacetylase 1 and greater than 25 µM at Cytochrome P450 3A4 [26]. Moreover, the bioavailability was 51% in [12], 4% in series [17] and 110% in series [21].

Source of the values: ChEMBL document CHEMBL1828590 (J Med Chem, 2011).
